Measured values as given in ChEMBL document CHEMBL1131085, “Structure-activity relationships for a series of bis(phenylalkyl)amines: potent subtype-selective inhibitors of N-methyl-D-aspartate receptors” (J Med Chem, 1998).

What was measured:
Type in all cases: cell-based, Oocyte
[1] = molecular target: Glutamate NMDA receptor; Grin1/Grin2a (Rattus norvegicus, UniProt P35439+Q00959); test: Functional antagonism by electrical assays in Xenopus oocytes expressing 1A/2A NMDA receptor subtype
[2] = molecular target: Glutamate NMDA receptor; Grin1/Grin2b (Rattus norvegicus, UniProt P35439+Q00960); test: Functional antagonism by electrical assays in Xenopus oocytes expressing the 1A/2B NMDA receptor
Chain of Glutamate NMDA receptor; Grin1/Grin2b (Q00960 whole entry, other chains not shown): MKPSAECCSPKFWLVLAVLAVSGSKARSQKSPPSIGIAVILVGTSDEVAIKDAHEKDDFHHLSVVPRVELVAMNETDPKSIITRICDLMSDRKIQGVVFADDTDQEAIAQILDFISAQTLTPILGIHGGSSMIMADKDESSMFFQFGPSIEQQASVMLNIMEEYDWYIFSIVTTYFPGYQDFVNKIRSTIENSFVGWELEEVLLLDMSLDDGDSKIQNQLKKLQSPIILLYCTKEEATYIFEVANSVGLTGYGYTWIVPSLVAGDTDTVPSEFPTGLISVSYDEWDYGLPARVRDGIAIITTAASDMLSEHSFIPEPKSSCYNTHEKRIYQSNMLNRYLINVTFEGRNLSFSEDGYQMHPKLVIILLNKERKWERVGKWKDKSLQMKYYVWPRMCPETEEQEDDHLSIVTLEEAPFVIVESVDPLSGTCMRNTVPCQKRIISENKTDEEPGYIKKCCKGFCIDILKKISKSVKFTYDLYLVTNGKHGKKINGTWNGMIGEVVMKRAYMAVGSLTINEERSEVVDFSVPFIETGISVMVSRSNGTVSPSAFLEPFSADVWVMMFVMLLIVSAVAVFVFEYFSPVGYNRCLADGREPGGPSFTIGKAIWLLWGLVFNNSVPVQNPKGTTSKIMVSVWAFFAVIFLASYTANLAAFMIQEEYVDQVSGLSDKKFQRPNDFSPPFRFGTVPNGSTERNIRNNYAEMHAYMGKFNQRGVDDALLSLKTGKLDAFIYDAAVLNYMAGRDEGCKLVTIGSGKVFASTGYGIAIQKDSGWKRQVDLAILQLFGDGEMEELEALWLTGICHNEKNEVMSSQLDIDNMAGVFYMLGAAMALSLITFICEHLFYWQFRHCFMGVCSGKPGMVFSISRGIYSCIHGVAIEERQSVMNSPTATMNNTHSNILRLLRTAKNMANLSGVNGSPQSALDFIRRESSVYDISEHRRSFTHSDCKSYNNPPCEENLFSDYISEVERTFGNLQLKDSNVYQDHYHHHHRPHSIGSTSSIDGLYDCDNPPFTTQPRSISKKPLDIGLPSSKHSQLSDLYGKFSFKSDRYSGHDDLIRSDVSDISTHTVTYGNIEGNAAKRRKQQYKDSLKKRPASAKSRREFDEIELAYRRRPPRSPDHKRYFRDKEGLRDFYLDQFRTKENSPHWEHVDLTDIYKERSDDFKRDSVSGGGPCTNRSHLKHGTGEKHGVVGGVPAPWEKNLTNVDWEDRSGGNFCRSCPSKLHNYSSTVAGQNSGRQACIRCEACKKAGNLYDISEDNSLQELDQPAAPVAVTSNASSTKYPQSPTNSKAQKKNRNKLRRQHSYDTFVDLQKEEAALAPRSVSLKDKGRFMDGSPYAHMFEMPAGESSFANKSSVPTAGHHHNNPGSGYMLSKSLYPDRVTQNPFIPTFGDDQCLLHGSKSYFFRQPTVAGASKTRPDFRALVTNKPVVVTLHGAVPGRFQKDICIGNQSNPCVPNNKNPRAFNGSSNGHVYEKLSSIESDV

[3] = molecular target: Glutamate NMDA receptor; Grin1/Grin2c (Rattus norvegicus, UniProt P35439+Q00961); test: Functional antagonism by electrical assays in Xenopus oocytes expressing the 1A/2C NMDA receptor
Chain of Glutamate NMDA receptor; Grin1/Grin2c (Q00961 whole entry, other chains not shown): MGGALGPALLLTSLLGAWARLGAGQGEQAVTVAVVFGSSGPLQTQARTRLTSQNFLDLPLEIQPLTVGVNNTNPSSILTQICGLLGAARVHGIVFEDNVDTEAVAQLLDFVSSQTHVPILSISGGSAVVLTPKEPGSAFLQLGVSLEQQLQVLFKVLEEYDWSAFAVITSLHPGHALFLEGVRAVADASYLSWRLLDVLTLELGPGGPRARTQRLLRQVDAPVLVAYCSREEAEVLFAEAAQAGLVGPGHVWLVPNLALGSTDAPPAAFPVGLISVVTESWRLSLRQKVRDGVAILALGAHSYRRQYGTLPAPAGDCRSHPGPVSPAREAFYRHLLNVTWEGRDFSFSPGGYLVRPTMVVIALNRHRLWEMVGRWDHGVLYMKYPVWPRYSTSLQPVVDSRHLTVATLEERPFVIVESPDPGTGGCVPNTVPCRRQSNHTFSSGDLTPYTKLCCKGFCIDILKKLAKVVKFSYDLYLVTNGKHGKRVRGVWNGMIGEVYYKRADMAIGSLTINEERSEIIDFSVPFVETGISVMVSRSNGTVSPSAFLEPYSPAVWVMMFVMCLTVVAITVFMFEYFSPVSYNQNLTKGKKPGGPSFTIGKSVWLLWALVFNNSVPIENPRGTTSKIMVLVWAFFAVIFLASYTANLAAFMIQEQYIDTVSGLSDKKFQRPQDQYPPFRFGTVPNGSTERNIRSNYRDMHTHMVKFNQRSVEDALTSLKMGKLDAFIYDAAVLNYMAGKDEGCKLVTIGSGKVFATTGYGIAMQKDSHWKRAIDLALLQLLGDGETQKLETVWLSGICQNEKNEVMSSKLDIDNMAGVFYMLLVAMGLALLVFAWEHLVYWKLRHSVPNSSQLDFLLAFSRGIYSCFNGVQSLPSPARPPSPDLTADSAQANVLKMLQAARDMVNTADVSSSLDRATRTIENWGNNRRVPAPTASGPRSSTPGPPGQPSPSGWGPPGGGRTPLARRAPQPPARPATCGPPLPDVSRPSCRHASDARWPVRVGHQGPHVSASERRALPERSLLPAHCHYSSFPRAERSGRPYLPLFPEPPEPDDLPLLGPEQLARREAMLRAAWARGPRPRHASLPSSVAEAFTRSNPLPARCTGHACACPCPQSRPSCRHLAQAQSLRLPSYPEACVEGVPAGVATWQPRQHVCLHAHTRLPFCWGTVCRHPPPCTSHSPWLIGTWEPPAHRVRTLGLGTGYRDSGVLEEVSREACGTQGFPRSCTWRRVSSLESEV

Chain of Glutamate NMDA receptor; Grin1/Grin2a (Q00959 whole entry, other chains not shown): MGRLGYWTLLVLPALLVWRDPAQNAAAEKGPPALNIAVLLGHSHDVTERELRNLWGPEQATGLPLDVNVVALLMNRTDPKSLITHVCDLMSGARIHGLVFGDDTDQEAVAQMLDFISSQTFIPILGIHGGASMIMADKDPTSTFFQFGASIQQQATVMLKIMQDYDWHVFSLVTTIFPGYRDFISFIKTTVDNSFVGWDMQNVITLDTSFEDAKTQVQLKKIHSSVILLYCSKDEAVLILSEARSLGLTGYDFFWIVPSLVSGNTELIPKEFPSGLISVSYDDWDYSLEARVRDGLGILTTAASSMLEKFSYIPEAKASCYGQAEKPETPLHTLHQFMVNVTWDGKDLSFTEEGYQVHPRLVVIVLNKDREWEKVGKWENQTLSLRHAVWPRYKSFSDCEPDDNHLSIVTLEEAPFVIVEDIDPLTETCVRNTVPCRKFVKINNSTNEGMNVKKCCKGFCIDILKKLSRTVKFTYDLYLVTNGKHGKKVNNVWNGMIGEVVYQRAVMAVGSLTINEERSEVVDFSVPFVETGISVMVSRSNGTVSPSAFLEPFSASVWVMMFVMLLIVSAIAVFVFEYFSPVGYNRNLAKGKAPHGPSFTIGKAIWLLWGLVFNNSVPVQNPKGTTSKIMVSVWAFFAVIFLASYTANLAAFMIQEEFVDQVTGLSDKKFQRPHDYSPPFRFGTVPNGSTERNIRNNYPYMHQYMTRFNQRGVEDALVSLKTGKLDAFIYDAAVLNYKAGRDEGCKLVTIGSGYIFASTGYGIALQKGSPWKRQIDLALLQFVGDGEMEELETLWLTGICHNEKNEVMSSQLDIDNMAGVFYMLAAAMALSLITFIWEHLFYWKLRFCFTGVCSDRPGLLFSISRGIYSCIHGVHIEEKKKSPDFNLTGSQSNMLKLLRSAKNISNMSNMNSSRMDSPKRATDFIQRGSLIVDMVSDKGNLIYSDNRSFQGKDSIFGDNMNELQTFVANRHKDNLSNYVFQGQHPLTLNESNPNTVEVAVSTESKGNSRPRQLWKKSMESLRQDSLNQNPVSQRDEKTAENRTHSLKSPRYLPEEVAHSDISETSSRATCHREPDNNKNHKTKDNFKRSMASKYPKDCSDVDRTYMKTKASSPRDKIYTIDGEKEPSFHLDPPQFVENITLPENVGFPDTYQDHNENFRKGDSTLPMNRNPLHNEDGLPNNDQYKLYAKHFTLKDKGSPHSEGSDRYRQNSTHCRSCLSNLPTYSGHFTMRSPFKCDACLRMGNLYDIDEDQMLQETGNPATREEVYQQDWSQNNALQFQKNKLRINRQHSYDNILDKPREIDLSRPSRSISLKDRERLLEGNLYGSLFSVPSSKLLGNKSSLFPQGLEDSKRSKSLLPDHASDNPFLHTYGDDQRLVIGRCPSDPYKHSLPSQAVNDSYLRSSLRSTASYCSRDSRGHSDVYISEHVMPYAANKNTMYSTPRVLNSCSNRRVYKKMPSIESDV

Row | Compound | IC50 [1] [µM] | IC50 [2] [nM] | IC50 [3] [µM]
1 | c1ccc(CCCCNCCc2ccccc2)cc1 | 46 | 3500 | 36
2 | c1ccc(CCCNCCc2ccccc2)cc1 | > 100 | 7300 | > 100
3 | C[C@H](CCc1ccccc1)N[C@H](C)[C@@H](O)c1ccc(O)cc1 |  | 180 | 42
4 | Oc1ccc(CCN2CCC(Cc3ccccc3)CC2)cc1 | 57 | 200 | > 100
5 | c1ccc(CCN2CCC(Cc3ccccc3)CC2)cc1 | > 100 | 1100 | > 100

More lines, now with the values ahead:

Row | IC50 [1] [µM] | IC50 [2] [nM] | IC50 [3] [µM] | Compound
6 | 15 | 43 | 65 | Oc1ccc(CCNCCCCc2ccccc2)cc1
7 | > 100 | 3700 | > 100 | Oc1ccc(CCOCCCCc2ccccc2)cc1
8 | 12 | 8 | 39 | Oc1ccc(CCNCCCCCc2ccccc2)cc1
9 | 27 | 300 | 88 | CCN(CCCCc1ccccc1)CCc1ccc(O)cc1
10 | 26 | 96 | > 100 | Oc1ccc(CCNCCCc2ccccc2)cc1
11 | 18 | 45 | 39 | Oc1ccc(CCCNCCCCCc2ccccc2)cc1
12 | 17 | 35 | 30 | Oc1ccc(CCNCCCCCCc2ccccc2)cc1
13 | 18 | 15 | 48 | Oc1ccc(CCCNCCCCc2ccccc2)cc1
